Columns and labels:
[1] = target: T1, AHR (Homo sapiens, UniProt P35869); experiment: In vitro assay 2: agonism in human cell line (transactivation assay)
T1 sequence (P35869 11-848): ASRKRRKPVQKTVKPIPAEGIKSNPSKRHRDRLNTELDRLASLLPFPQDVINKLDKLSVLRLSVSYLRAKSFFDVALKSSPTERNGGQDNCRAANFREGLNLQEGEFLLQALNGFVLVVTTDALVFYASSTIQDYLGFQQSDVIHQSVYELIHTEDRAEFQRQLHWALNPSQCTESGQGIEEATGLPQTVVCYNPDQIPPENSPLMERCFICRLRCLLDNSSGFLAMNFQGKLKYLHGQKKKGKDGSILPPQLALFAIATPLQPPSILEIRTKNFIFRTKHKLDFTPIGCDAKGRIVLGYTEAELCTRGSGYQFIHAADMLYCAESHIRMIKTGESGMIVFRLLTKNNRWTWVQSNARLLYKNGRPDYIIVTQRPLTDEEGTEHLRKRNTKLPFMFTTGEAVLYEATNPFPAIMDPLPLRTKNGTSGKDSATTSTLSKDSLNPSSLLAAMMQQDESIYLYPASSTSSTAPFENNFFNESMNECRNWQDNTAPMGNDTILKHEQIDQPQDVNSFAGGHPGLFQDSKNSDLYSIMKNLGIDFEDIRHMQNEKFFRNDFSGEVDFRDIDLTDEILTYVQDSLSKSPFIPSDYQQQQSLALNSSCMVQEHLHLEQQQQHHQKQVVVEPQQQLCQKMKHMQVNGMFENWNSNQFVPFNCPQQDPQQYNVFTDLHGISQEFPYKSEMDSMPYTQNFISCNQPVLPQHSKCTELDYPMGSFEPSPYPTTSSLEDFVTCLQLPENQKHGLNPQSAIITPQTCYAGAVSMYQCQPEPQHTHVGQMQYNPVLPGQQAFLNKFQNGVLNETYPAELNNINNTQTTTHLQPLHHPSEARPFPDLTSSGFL

[2] = target: T1, AHR; experiment: In vitro assay 1: antagonism in human cell line (transactivation assay, kynurenic acid prestimulated); conditions: Assay 1: AHR-luc Hum Antagonism IC50 [M], 150 μM kynurenic acid, 20 hours, firefly luciferase
[3] = Assay 2: AHR-luc Hum Agonism IC50 [M], no kynurenic acid, 20 hours, firefly luciferase
[4] = read-out: Assay 2: AHR-luc Hum Agonism IC50, no kynurenic acid, 20 hours, firefly luciferase

Q: With O=C(NC(CO)Cc1cccnc1)c1cc(-c2ccc(Cl)cc2)nn(-c2cccc(F)c2)c1=O (racemic) [Example 338, 6-(4-chlorophenyl)-2-(3-fluorophenyl)-N-[(2RS)-1-hydroxy-3-(pyridin-3-yl)propan-2-yl]-3-oxo-2,3-dihydropyridazine-4-carboxamide] as the molecule, how does the IC50 [1, 3] read?
A: The IC50 was over 2e-05 M.

Q: And the IC50 [2]?
A: The IC50 was 7.32e-08 M.

Q: What does the source list for O=C(NC(CCO)C(F)(F)F)c1cc(-c2ccc(Cl)cc2)nn(-c2cccc(F)c2)c1=O (racemic) [Example 340, 6-(4-chlorophenyl)-2-(3-fluorophenyl)-3-oxo-N-[(2RS)-1,1,1-trifluoro-4-hydroxybutan-2-yl]-2,3-dihydropyridazine-4-carboxamide]?
A: IC50 [1, 3]: > 2e-05 M; IC50 [2]: 2.26e-08 M

Q: O=C(N[C@@H]1COC[C@@H]1O)c1cc(-c2ccc(C(F)(F)F)cc2)nn(-c2cccc(F)c2)c1=O (racemic) [Example 341, 2-(3-fluorophenyl)-N-(cis-4-hydroxytetrahydrofuran-3-yl)-3-oxo-6-[4-(trifluoromethyl)phenyl]-2,3-dihydropyridazine-4-carboxamide] was tested. Which IC50 [1, 3] did it give?
A: The IC50 was over 2e-05 M.

Q: And the IC50 [2]?
A: Its IC50 is 8.45e-09 M.

Q: How did the IC50 [1, 3] turn out when O=C(N[C@@H]1CC[C@@H]1O)c1cc(-c2ccc(Cl)cc2)nn(-c2cccc(F)c2)c1=O (racemic) [Example 356, 6-(4-chlorophenyl)-2-(3-fluorophenyl)-N-(cis-2-hydroxycyclobutyl)-3-oxo-2,3-dihydropyridazine-4-carboxamide] was run?
A: Its IC50 is over 2e-05 M.

Q: What about the IC50 [2] of the same molecule?
A: Its IC50 is 4.18e-08 M.

Q: Which IC50 [1, 3] does the source give for COc1ccc(-c2cc(C(=O)N[C@@H]3CCCC[C@@H]3O)c(=O)n(-c3cccc(F)c3)n2)cc1 (relative stereo) [Example 106, 2-(3-Fluorophenyl)-N-(cis-2-hydroxycyclohexyl)-6-(4-methoxyphenyl)-3-oxo-2,3-dihydropyridazine-4-carboxamide] here?
A: Its IC50 is over 2e-05 M.

Q: And the IC50 [2]?
A: The IC50 was 1.98e-08 M.

Q: With O=C(N[C@H]1CCCC[C@@H]1O)c1cc(-c2ccc(Cl)cc2)nn(-c2cccc(F)c2)c1=O (relative stereo) [Example 117, 6-(4-chlorophenyl)-2-(3-fluorophenyl)-N-(trans-2-hydroxycyclohexyl)-3-oxo-2,3-dihydropyridazine-4-carboxamide] as the molecule, how does the IC50 [1, 3] read?
A: Its IC50 is over 2e-05 M.

Q: And the IC50 [2]?
A: The IC50 was 3.67e-08 M.

Q: What does the source list for O=C(N[C@@H]1CCCC[C@@H]1O)c1cc(-c2ccc(OC(F)F)cc2)nn(-c2cccc(F)c2)c1=O (relative stereo) [Example 130, 6-[4-(Difluoromethoxy)phenyl]-2-(3-fluorophenyl)-N-(cis-2-hydroxycyclohexyl)-3-oxo-2,3-dihydropyridazine-4-carboxamide]?
A: IC50 [1, 3]: > 2e-05 M; IC50 [2]: 4.37e-08 M

Q: For O=C(N[C@H]1COC[C@@H]1O)c1cc(-c2ccc(Cl)cc2)nn(-c2cccc(F)c2)c1=O (relative stereo) [Example 134, 6-(4-Chlorophenyl)-2-(3-fluorophenyl)-N-(trans-4-hydroxytetrahydrofuran-3-yl)-3-oxo-2,3-dihydropyridazine-4-carboxamide], which IC50 [1, 3] is on record?
A: The IC50 was over 2e-05 M.

Q: And the IC50 [2]?
A: The IC50 was 1.72e-07 M.

Q: Which IC50 [1, 3] does the source give for C[C@H](O)[C@H](C)NC(=O)c1cc(-c2ccc(OC(F)F)cc2)nn(-c2cccc(F)c2)c1=O (relative stereo) [Example 143, rel-6-[4-(Difluoromethoxy)phenyl]-2-(3-fluorophenyl)-N-[(2S,3S)-3-hydroxybutan-2-yl]-3-oxo-2,3-dihydropyridazine-4-carboxamide] here?
A: The IC50 was over 2e-05 M.

Q: What about the IC50 [2] of the same molecule?
A: The IC50 was 8.07e-08 M.

Q: Which IC50 [1, 3] does the source give for COc1ccc(-c2cc(C(=O)N[C@@H]3CCCC[C@H]3O)c(=O)n(-c3cccc(F)c3)n2)cc1 (relative stereo) [Example 152, 2-(3-Fluorophenyl)-N-trans-2-hydroxycyclohexyl-6-(4-methoxyphenyl)-3-oxo-2,3-dihydropyridazine-4-carboxamide] here?
A: The IC50 was over 2e-05 M.

Q: What about the IC50 [2] of the same molecule?
A: Its IC50 is 1.32e-07 M.

Q: For COc1ccc(-c2cc(C(=O)N[C@@H]3CCC[C@H]3O)c(=O)n(-c3cccc(F)c3)n2)cc1 (relative stereo) [Example 154, 2-(3-Fluorophenyl)-N-(trans-2-hydroxycyclopentyl)-6-(4-methoxyphenyl)-3-oxo-2,3-dihydropyridazine-4-carboxamide], which IC50 [1, 3] is on record?
A: Its IC50 is over 2e-05 M.

Q: What about the IC50 [2] of the same molecule?
A: The IC50 was 1.69e-07 M.

Q: Which IC50 [1, 3] does the source give for O=C(N[C@@H]1CCCC(F)(F)[C@H]1O)c1cc(-c2ccc(Cl)cc2)nn(-c2cccc(F)c2)c1=O (relative stereo) [Example 274, 6-(4-Chlorophenyl)-N-[(trans)-3,3-difluoro-2-hydroxycyclohexyl]-2-(3-fluorophenyl)-3-oxo-2,3-dihydropyridazine-4-carboxamide] here?
A: The IC50 was over 2e-05 M.

Q: What about the IC50 [2] of the same molecule?
A: Its IC50 is 2.06e-08 M.

Q: C[C@H](O)[C@H](C)NC(=O)c1cc(-c2ccc(Cl)c(F)c2)nn(-c2cccc(F)c2)c1=O (relative stereo) [Example 290, rel-6-(4-Chloro-3-fluorophenyl)-2-(3-fluorophenyl)-N-[(2S,3S)-3-hydroxybutan-2-yl]-3-oxo-2,3-dihydropyridazine-4-carboxamide] was tested. Which IC50 [1, 3] did it give?
A: The IC50 was over 2e-05 M.

Q: And the IC50 [2]?
A: Its IC50 is 8.14e-08 M.

Q: Which IC50 [1, 3] does the source give for O=C(N[C@@H]1CCCC[C@@H]1O)c1cc(-c2ccc(Cl)c(F)c2)nn(-c2cccc(F)c2)c1=O (relative stereo) [Example 291, 6-(4-Chloro-3-fluorophenyl)-2-(3-fluorophenyl)-N-(cis-2-hydroxycyclohexyl)-3-oxo-2,3-dihydropyridazine-4-carboxamide] here?
A: The IC50 was over 2e-05 M.

Q: And the IC50 [2]?
A: The IC50 was 8.51e-08 M.

Q: C[C@H](O)[C@H](C)NC(=O)c1cc(-c2ccc(Cl)c(Cl)c2)nn(-c2cccc(F)c2)c1=O (relative stereo) [Example 305, rel-6-(3,4-Dichlorophenyl)-2-(3-fluorophenyl)-N-[(2S,3S)-3-hydroxybutan-2-yl]-3-oxo-2,3-dihydropyridazine-4-carboxamide] was tested. Which IC50 [1, 3] did it give?
A: Its IC50 is over 2e-05 M.

Q: And the IC50 [2]?
A: Its IC50 is 1.21e-07 M.

Q: C[C@H](O)[C@H](C)NC(=O)c1cc(-c2ccc(Cl)cc2)nn(-c2cc(Cl)cc(Cl)c2)c1=O (relative stereo) [Example 312, 6-(4-Chlorophenyl)-2-(3,5-dichlorophenyl)-N-[(2S,3S)-3-hydroxybutan-2-yl]-3-oxo-2,3-dihydropyridazine-4-carboxamide] was tested. Which IC50 [1, 3] did it give?
A: The IC50 was over 2e-05 M.

Q: What about the IC50 [2] of the same molecule?
A: Its IC50 is 5.88e-07 M.

Q: What does the source list for O=C(N[C@H]1COC[C@@H]1O)c1cc(-c2ccc(N3CCOCC3)cc2)nn(-c2cccc(F)c2)c1=O (relative stereo) [Example 378, rel-2-(3-fluorophenyl)-N-[(3R,4S)-4-hydroxytetrahydrofuran-3-yl]-6-[4-(morpholin-4-yl)phenyl]-3-oxo-2,3-dihydropyridazine-4-carboxamide]?
A: IC50 [1, 3]: > 2e-05 M; IC50 [2]: 2.48e-07 M

Q: Which IC50 [1, 3] does the source give for CN1C[C@H](O)[C@H](NC(=O)c2cc(-c3ccc(Cl)cc3)nn(-c3cccc(F)c3)c2=O)C1 (relative stereo) [Example 388, 6-(4-chlorophenyl)-2-(3-fluorophenyl)-N-[cis-4-hydroxy-1-methylpyrrolidin-3-yl]-3-oxo-2,3-dihydropyridazine-4-carboxamide] here?
A: The IC50 was over 2e-05 M.

Q: And the IC50 [2]?
A: The IC50 was 6.9e-07 M.

Q: COCC(O)CNC(=O)c1cc(-c2ccc(Cl)cc2)nn(-c2cccc(F)c2)c1=O (single isomer, unassigned) [Example 32, 6-(4-Chlorophenyl)-2-(3-fluorophenyl)-N-(2-hydroxy-3-methoxypropyl)-3-oxo-2,3-dihydropyridazine-4-carboxamide] was tested. Which IC50 [1, 3] did it give?
A: The IC50 was over 2e-05 M.

Q: What about the IC50 [2] of the same molecule?
A: The IC50 was 1.81e-07 M.

Q: How did the IC50 [1, 4] turn out when COCC(O)CNC(=O)c1cc(-c2ccc(Cl)cc2)nn(-c2cccc(F)c2)c1=O (single isomer, unassigned) [Example 33, 6-(4-Chlorophenyl)-2-(3-fluorophenyl)-N-(2-hydroxy-3-methoxypropyl)-3-oxo-2,3-dihydropyridazine-4-carboxamide] was run?
A: Its IC50 is over 2e-05 M.

Q: What about the IC50 [2] of the same molecule?
A: The IC50 was 2.11e-07 M.

Q: How did the IC50 [1, 3] turn out when O=C(NC(CO)C1CCOC1)c1cc(-c2ccc(Cl)cc2)nn(-c2cccc(F)c2)c1=O (single isomer, unassigned) [Example 39] was run?
A: The IC50 was over 2e-05 M.

Q: And the IC50 [2]?
A: Its IC50 is 2.76e-08 M.

Q: With O=C(NC(CO)C1CCOC1)c1cc(-c2ccc(Cl)cc2)nn(-c2cccc(F)c2)c1=O (single isomer, unassigned) [Example 40, 6-(4-Chlorophenyl)-2-(3-fluorophenyl)-N-[2-hydroxy-1-(tetrahydrofuran-3-yl)ethyl]-3-oxo-2,3-dihydropyridazine-4-carboxamide] as the molecule, how does the IC50 [1, 4] read?
A: Its IC50 is over 2e-05 M.

Q: What about the IC50 [2] of the same molecule?
A: Its IC50 is 1.17e-07 M.

Q: How did the IC50 [1, 4] turn out when O=C(NC(CO)C1CCOC1)c1cc(-c2ccc(Cl)cc2)nn(-c2cccc(F)c2)c1=O (single isomer, unassigned) [Example 41, 6-(4-Chlorophenyl)-2-(3-fluorophenyl)-N-[2-hydroxy-1-(tetrahydrofuran-3-yl)ethyl]-3-oxo-2,3-dihydropyridazine-4-carboxamide] was run?
A: The IC50 was over 2e-05 M.

Q: And the IC50 [2]?
A: Its IC50 is 2.15e-07 M.
